Patent publication US11213518B2, “Ligands of the mu, kappa, and delta opioid receptors” (The Board of Trustees of the Leland Stanford Junior …, priority 2017, dated 2022)
“Also recorded” adds a separate entry of the source. Like-named read-outs stand apart in the source and are kept apart here.

Columns and labels:
DOR-1 = target: T1, DOR-1 (Mus musculus, UniProt P32300); experiment: Competition binding against 125I-IBNtxA, DOR-1 CHO membranes; conditions: vs 125I-IBNtxA (0.1 nM)
T1 construct: expressed in transfected cells
Procedure: (§1) FIGS. 7A-7C show competition assays at MOR-1, KOR-1 and DOR-1 against FMP4. Competition studies were performed with FMP4 against ^125I-IBNtxA (0.1 nM) in membranes from CHO cells stably expressing the indicated cloned mouse opioid receptors Each figure is a representative experiment that has been independently replicated at least three times. Error bars represent the SEM of triplicate samples. Error bars that cannot be seen are smaller than the size of the symbol.

MOR-1 [1] = target: T2, MOR-1 (Mus musculus, UniProt P42866); experiment: Competition binding against 125I-IBNtxA, MOR-1 CHO membranes; parameters: expressed in transfected cells; conditions: vs 125I-IBNtxA (0.1 nM)
KOR-1 = target: T3, KOR-1 (Mus musculus, UniProt P33534); experiment: Competition binding against 125I-IBNtxA, KOR-1 CHO membranes; conditions: vs 125I-IBNtxA (0.1 nM), cloned mouse receptor, ± SEM
T3 construct: expressed in transfected cells
Procedure: as §1

MOR-1 [2] = target: T2, MOR-1; experiment: [35S]-GTPγS assay in MOR-1 expressing CHO cells; type: biochemical; parameters: expressed in transfected cells; host or cells: CHO cells; conditions: for Functional character in [35S]GTPγS assay at MOR-1: MOR-1 expressing CHO cells, compared with full agonist DAMGO 100 nM
Source text: Results are pooled from 3 independent replications and are expressed as mean±SEM.

MOR-1 [3] = target: T2, MOR-1; experiment: Screening of MOR-1 binders, single-dose inhibition of 125IBNtxA specific binding; parameters: expressed in transfected cells; host or cells: CHO cells; conditions: single dose 10 μM
Source text: Each panel is a representative experiment that has been independently replicated at least three times.

[4] = cloned mouse receptor, ± SEM, read-out: Binding Data-Ki MOR-1
[5] = value in μM, read-out: Binding Data-Ki / affinity MOR-1 (μOR)

SMILES	Ki (DOR-1; cloned mouse receptor, ± SEM) [µM]	Ki (MOR-1 [1]; [4]) [µM]	Ki (KOR-1) [µM]	Ki (MOR-1 [1]; [5]) [µM]	Antagonism of GTPγS stimulation by 100 nM DAMGO (MOR-1 [2]; FMP4 at 30 μM)	Functional character in [35S]GTPγS assay at MOR-1 (MOR-1 [2])	Functional character in [35S]GTPγS assay at MOR-1 (MOR-1 [2]; listed as FMP 4)	Stimulation of GTPγS binding (MOR-1 [2]; doses 1, 10 and 30 μM, ceiling effect, p<0.0001 vs control)	inhibition at 10 µM (MOR-1 [3]) [%]	Ki (DOR-1; value in μM) [µM]
Cc1ccccc1OCCCCCN1CCOCC1 [FMP30]	12.8 ± 0.856	11.3 ± 2.26	6.01 ± 2.16	–	–	–	–	–	–	–
Cc1ccccc1OCCCCCCc1c(C)n[nH]c1C [FMP4, 3,5-dimethyl-4-[6-(o-tolyloxy)hexyl]-1H-pyrazole]	8.14 ± 1.4	3.22 ± 0.153	2.5 ± 0.523	3.2	antagonized the GTPγS stimulation of 100 nM DAMGO	weak partial agonism; also recorded: partial agonist	weak MOR-1 partial agonist	stimulates GTPγS binding	≥ 30	–
COc1cccc(OCCCCCN2CCCCC2)c1 [FMP6]	–	–	6.94 ± 1.97	> 30	–	–	–	–	–	> 30
Cc1ccc(OCCCCCCc2c(C)n[nH]c2C)cc1 [FMP16, 3,5-dimethyl-4-[6-(p-tolyloxy)hexyl]-1H-pyrazole]	9.06 ± 0.566	1.75 ± 0.492	4.92 ± 2.24	< 10	–	–	–	–	≥ 30	–
Cc1ccccc1OCCCCCN1CCCCC1 [FMP1, 1-piperidino-5-(o-tolyloxy)pentane]	17.9 ± 7.61	0.841 ± 0.242	7.39 ± 2.38	< 10	–	–	–	–	≥ 30	–
Cc1cccc(C)c1OCCCCCN1CCN(C)CC1 [FMP21]	–	–	5.5 ± 4.19	> 30	–	–	–	–	–	> 30
